# Paper PMC3169616, “Unique Residues Involved in Activation of the Multitasking Protease/Chaperone HtrA from Chlamydia trachomatis” (PLoS ONE, 2011)
# No end group written: not given here. *: point of attachment. pNA = O=[N+]([O-])c1ccc(N*)cc1
# What was measured:
# [1] = target: T1, CtHtrA (Chlamydia trachomatis serovar D, UniProt P18584); assay: Protease assay and kinetic analysis with pNA-labelled peptide substrates; format: biochemical; settings: pNA peptide as substrate, absorbance 405 nm, 37°C; for Vmax: reading every 10 s for 30 min
# T1 construct: His-tag; made in house; host or cells: E. coli BL21 (DE3), plasmid pETHtrA
# T1 sequence (P18584 17-497): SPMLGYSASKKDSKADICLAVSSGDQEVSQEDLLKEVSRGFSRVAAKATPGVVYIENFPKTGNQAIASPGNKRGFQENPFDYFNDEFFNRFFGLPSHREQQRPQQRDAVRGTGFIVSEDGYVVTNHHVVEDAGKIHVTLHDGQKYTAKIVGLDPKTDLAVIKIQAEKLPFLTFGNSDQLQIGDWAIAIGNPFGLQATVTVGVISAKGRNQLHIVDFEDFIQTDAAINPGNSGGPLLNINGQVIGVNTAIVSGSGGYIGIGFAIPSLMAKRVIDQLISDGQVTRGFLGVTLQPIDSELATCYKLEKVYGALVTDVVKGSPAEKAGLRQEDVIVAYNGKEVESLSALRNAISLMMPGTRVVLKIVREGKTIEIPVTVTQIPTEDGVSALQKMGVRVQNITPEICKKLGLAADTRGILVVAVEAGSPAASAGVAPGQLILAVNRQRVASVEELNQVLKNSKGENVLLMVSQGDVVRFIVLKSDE
# Experimental: A series of peptide substrates were then designed based on the cleavage sites previously identified in ß-casein [3], PICS results, previously published substrates for E. coli DegP [22], and the REPLi library screening results. These peptides were assayed against CtHtrA and kinetic analysis was conducted (Table 2). […] Generally, peptides with only 4 residues or less were not cleaved. […] The preference for K at P3 implies a salt bridge may be involved in substrate coordination in the CtHtrA active site in the substrate pocket or subsite S3. In a direct comparison between MFRLI-pNA and MFQLI-pNA, R was clearly the most preferred. […] The Km for each of these, however, was at least an order of magnitude higher than the Km for MFKLI-pNa. The results from individually synthesised peptides (Table 2) and the peptides sourced from the REPLi library (Table 1) were consistent in that non-polar sequences are most preferred. […] (Fig. S3).
# The purified recombinant protein was examined by Coomassie stained polyacrylamide gels and activity was checked using ß-casein cleavage assays prior to use in peptide assays. Briefly, this involved incubating 2 µg of the protease with 10 µg of ß-casein in 50 mM Tris pH 7.0, 20 mM MgCl2 for 2 h prior to examining the assays by SDS PAGE (ß-casein and protease only controls were always conducted). Protease assays using peptides were conducted using custom synthesised peptides (Mimotopes). The peptides were purified to 95% purity (or greater) and were typically resuspended in 50% isopropanol, although some peptides required 100% DMSO. Protease assays using pNA labelled peptides were conducted using the xMARK Microplate spectrophotometer (Bio-Rad) at 405 nm, incubated at 37°C, with a reading taken every 10 s for 30 min. The maximum slope over a minimum of 8 readings was used for the data analysis. Other peptides were labelled with 7-methoxycoumarin-4-acetic acid (MCA, fluorophore) and 2,4-dinitrophenyl (DNP, quencher). The protease assays using these peptides were conducted in black plates at 37°C using the POLARstar Optima (BMG Labtech). The assays were excited at 340 nm and emission was detected at 405 nm with a gain of 1000, the assays were monitored every 20 s or at the minimum cycle time for up to 40 min. The Omega software was used to calculate the maximum rate from a minimum of 6 time points for each assay. The REPLi library of peptides (Mimotopes, Melbourne, Australia) was also assayed with CtHtrA in the POLARstar Optima using similar assay conditions to those described above. Substrate only and protease only assay controls were conducted for every experiment and protease assays were typically conducted in triplicate on at least two different days. The assay results shown are the maximal rate observed from three or more different assays and adjusted for protein concentration. The assay results shown for the fluorescent compounds have been normalised for the amount of fluorescent emission detected using a standard curve of known concentrations of the MCA fluorophore under the identical assay conditions. All of the peptides used in this work were synthesised commercially to 95% purity or greater (Mimotopes, Melbourne, Australia). All protease assays were conducted minimally in duplicate on three separate occasions.
# [2] = target: T1, CtHtrA; assay: Oligomerisation assay (glutaraldehyde crosslinking, 3-8% TrisAcetate gel, silver stain); format: biochemical; settings: wild type CtHtrA 2 mg/ml, 100 mM sodium phosphate pH 7.0, 10 mins at 37°C, 0.5% glutaraldehyde fixation
# Experimental: (§1) E. coli DegP proteolysis activation involves the transition from resting hexamers via trimers to 12- and 24-mers following the peptide activator binding to the PDZ1 binding cleft. CtHtrA oligomer formation induced by Act1 addition was examined after incubation for 10 mins at 37°C. The wild type and mutant proteins were incubated with either the ß-casein based activator peptide (Act1), or with whole insulin (intact), or in the absence of any activator as a control. CtHtrA incubated in the absence of any added activators formed 24-mers with some hexamers detected after 10 mins (Fig. 5). […] The R299W mutant was present as hexamer and 24-mer in the control with no activator. […] The L302N mutant was not detected in any higher oligomeric form under any conditions. L302N was detected as faint hexamer and trimer but mostly monomer under all tested conditions (not visible on these gels). […] I365D was detected as hexamers, trimers, 12-mers, and some 24-mers when incubated in the absence of activators.
# (§2) The oligomerisation of HtrA into 12- and 24-mer complexes has been independently detected for E. coli HtrA (DegP). The oligomerisation of HtrA (DegP) was triggered by peptides from digested ß-casein [18]. Assays to detect whether CtHtrA and site directed mutant protein oligomerisation was triggered by substrates were conducted essentially as previously described (Merdanovic et al., 2010). Briefly, 2 mg/ml protein solutions in 100 mM sodium phosphate buffer pH 7.0 were pre-incubated to the required temperature. The ligands (activator peptide, or insulin) were added and at 10 min, and the proteins were fixed using 0.5% glutaraldehyde. Samples were fixed at room temperature for 2 min prior to addition of 1 M Tris pH 7.5 to remove any excess glutaraldehyde. Samples were incubated for another 10 min at room temperature prior to addition of SDS PAGE reducing loading buffer. The protein samples were examined on 3–8% TrisAcetate gradient polyacrylamide gels (Novex, Invitrogen) by silver staining. The proteins used in this study were not initially denatured by treatment with urea as, the refolding, formation of oligomers, and protease activity was never successfully detected with denatured CtHtrA. All assays were conducted in duplicate on three separate occasions with at least two gels of each experiment completed for each assay condition.
# [3] = target: T1, CtHtrA; assay: Activation of CtHtrA cleavage of Bcas1 substrate by added activator; format: biochemical; settings: substrate Bcas1 (MCA-ENLHLPLPIIF-DNP), fluorimetric, 37°C
# Experimental: To determine if the addition of a second peptide to the protease assays could activate or increase CtHtrA proteolysis, two activator peptides were tested in the CtHtrA cleavage of the model ß-casein peptide substrate Bcas1. The first was based on the ß-casein C-terminal sequence (Act1: NH2-VLGPVRGPFPIIV-OH) and the second on insulin b chain C-terminal sequence (Act2: NH2-CGELGFFYTP-OH).
# Finally, in order to determine if the 24-mer (highest amount with MOMP protein, or Act1), or 12-mer, or both, corresponds to enhanced protease activity, the incubations of CtHtrA and these potential in vivo activators were used for protease assays with the Bcas1 substrate (Fig. 6). […] The presence of the majority of CtHtrA as higher order oligomers correlated with an increased rate of proteolysis for CtHtrA, particularly when these oligomers were predominately 24-mers.
# The purified recombinant protein was examined by Coomassie stained polyacrylamide gels and activity was checked using ß-casein cleavage assays prior to use in peptide assays. Briefly, this involved incubating 2 µg of the protease with 10 µg of ß-casein in 50 mM Tris pH 7.0, 20 mM MgCl2 for 2 h prior to examining the assays by SDS PAGE (ß-casein and protease only controls were always conducted). Protease assays using peptides were conducted using custom synthesised peptides (Mimotopes). […] Protease assays using pNA labelled peptides were conducted using the xMARK Microplate spectrophotometer (Bio-Rad) at 405 nm, incubated at 37°C, with a reading taken every 10 s for 30 min. The maximum slope over a minimum of 8 readings was used for the data analysis. […] The assays were excited at 340 nm and emission was detected at 405 nm with a gain of 1000, the assays were monitored every 20 s or at the minimum cycle time for up to 40 min. […] The assay results shown for the fluorescent compounds have been normalised for the amount of fluorescent emission detected using a standard curve of known concentrations of the MCA fluorophore under the identical assay conditions. […]
# [4] = target: T1, CtHtrA; assay: MS and MS-MS analysis of peptide cleavage products; format: biochemical; settings: peptide 150 µM digested with CtHtrA (71 µg); sites MCA-ENLH↓LPLPI↓IF-DNP
# Experimental: Bcas1 and Act1 peptides (150 µM concentration) digested with CtHtrA (71 µg) were analysed by online LC/MS/MS using a QStar Pulsar I (Applied Biosystems) in […] mode. Data acquired were converted into mzXML format using proteowizard (v2) and searched using ([…], the global proteome machine, ftp://ftp.thegpm.org/fasta/cRAP), against CtHtrA and Act1 and Bcas1 peptide sequences with an included decoy database of the reverse sequence for each protein. The search also included potential mass modifications accounting for the additional […] moieties on the N and C peptide termini, respectively. Matches with an expected ratio of <1 were considered identified. All raw data and mass spectra can be made available on request.
# [5] = target: T1, CtHtrA; assay: Protease assay with MCA/DNP-labelled fluorimetric peptides (REPLi library); format: biochemical; settings: peptide based on the optimal activity for human HtrA2; data not shown
# Description: To further refine the CtHtrA substrate specificity, the REPLi peptide library (Mimotopes, Melbourne) was screened. The REPLi library peptides consist of a randomised tripeptide sequence flanked on either side by two GGG tripeptide sequences. The N-terminus of each peptide was labelled with a 7-methoxycoumarin (MCA) fluorophore, and the C-terminus was labelled with a 2,4-dinitrophenyl (DNP) fluorescent quencher. The peptides were pooled according to structural similarity and selected wells with high activity were then rescreened as individual peptides to identify the peptides cut by CtHtrA (Fig. S2, all wells where CtHtrA activity was observed). […] Cleavage at the glycine or terminal fluorophore or quenchers was never detected for any peptide. […]
# The purified recombinant protein was examined by Coomassie stained polyacrylamide gels and activity was checked using ß-casein cleavage assays prior to use in peptide assays. […] Protease assays using pNA labelled peptides were conducted using the xMARK Microplate spectrophotometer (Bio-Rad) at 405 nm, incubated at 37°C, with a reading taken every 10 s for 30 min. The maximum slope over a minimum of 8 readings was used for the data analysis. […] The assays were excited at 340 nm and emission was detected at 405 nm with a gain of 1000, the assays were monitored every 20 s or at the minimum cycle time for up to 40 min. […]
# [6] = test system: CtHtrA R373A; assay: Oligomerisation assay, mutated protein; format: biochemical, Chlamydia trachomatis; settings: R373A mutant, 10 mins incubation
# Experimental: as §1, §2
# [7] = test system: CtHtrA R299W; assay: Oligomerisation assay, mutated protein; format: biochemical, Chlamydia trachomatis; settings: R299W mutant, 10 mins incubation
# Experimental: as §1, §2
# [8] = test system: CtHtrA R373A/R299W; assay: Oligomerisation assay, mutated protein; format: biochemical, Chlamydia trachomatis; settings: R373A/R299W mutant, 10 mins incubation
# Description: This activation was very similar to that observed for CtHtrA, and was the only condition during which any of the mutated proteins oligomerised in a similar profile to CtHtrA.
# as §2, with “All assays were conducted in duplicate on three separate occasions with at least two gels of each experiment completed for each assay condition.” left out
Substance,Kcat/Km [1],Km [1],Vmax [1],also measured
"DMPFKLT-pNA [Model E. coli substrate, T at P1]",158.7 M⁻¹ s⁻¹,940 µM,"8.955 mM sec^−1, µM CtHtrA^−1",
"DPMFKLI-pNA [Model E. coli substrate, I at P1]",,527 µM,"10.340 mM sec^−1, µM CtHtrA^−1",
"DPMFKLL-pNA [Model E. coli substrate, L at P1]",,883 µM,"3.179 mM sec^−1, µM CtHtrA^−1",
"DPMFKLP-pNA [Model E. coli substrate, P at P1]",,3870 µM,"2.917 mM sec^−1, µM CtHtrA^−1",
"DPMFKLV-pNA [previously published E. coli DegP substrate [22], reference compound]",241.2 M⁻¹ s⁻¹,323 µM,"4.678 mM sec^−1, µM CtHtrA^−1",
"DPMFKQT-pNA [Model E. coli substrate, change P1 and P2]",542.2 M⁻¹ s⁻¹,9.38 µM,"0.3165 mM sec^−1, µM CtHtrA^−1",
"H-AESNFKMLEIEAE-OH [CtL0043, C-terminal 13 residues of outer membrane ß-barrel CtL0043]",,,,CtHtrA oligomer formation induced by activator [2]: activated mainly trimer formation with some 12-mer present
H-HDVLSPSLDEINVP-OH [PyKinC],,,,CtHtrA oligomer formation induced by activator [2]: activated mainly trimer formation with some 12-mer present
"H-LAHMMNCGARMIF-OH [PmpC, C-terminal 13 residues of outer membrane ß-barrel PmpC]",,,,effect of activator on rate of CtHtrA proteolysis of Bcas1 [3]: did not increase the rate of proteolysis of Bcas1; CtHtrA oligomer formation induced by activator [2]: activated the formation of 12-mer
"MCA-ENLHLPLPIIF-DNP [Bcas1, model ß-casein peptide substrate based on a ß-casein cleavage site]",,,,cleavage sites observed by LC-MS-MS [4]: Two cleavage sites
MCA-IRRVSYSF-DNP,,,,viability as substrate for CtHtrA [5]: not a viable substrate
MFKLI-pNA,1084.8 M⁻¹ s⁻¹,62 µM,"4.046 mM sec^−1, µM CtHtrA^−1",
"MFQLI-pNA [pNA peptide substrate, P3 modification]",21.2 M⁻¹ s⁻¹,141 µM,"0.1796 mM sec^−1, µM CtHtrA^−1",
"MFRLI-pNA [pNA peptide substrate, P3 modification]",106.22 M⁻¹ s⁻¹,2910 µM,"18.53 mM sec^−1, µM CtHtrA^−1",
"PMFKLI-pNA [pNA peptide substrate, 1 residue less]",526.7 M⁻¹ s⁻¹,314 µM,"9.931 mM sec^−1, µM CtHtrA^−1",
insulin: previously demonstrated in vitro chaperone substrate of CtHtrA [reference compound],,,,oligomer formation induced by activator [6]: mainly detected as hexamer; oligomer formation induced by activator [7]: mainly hexamer; oligomer formation induced by activator [8]: did not form a similar profile of oligomers as wild-type CtHtrA; CtHtrA oligomer formation induced by activator [2]: activated to 24-mers with little hexamer visible
